According to US8685928B2, “Antagonists of MUC1” (Dana-Farber Cancer Institute, Inc., priority 2010, dated 2014):
Entries after “also recorded” stand apart in the source; their conditions may differ. Positions of bridges follow the written chain, without caps; N, C: chain ends. Non-standard residues stand in square brackets, D forms with d. Residues, ends and D or L forms follow the SMILES beside them.

Key:
[1] = Pivotal repeat-dose rat toxicity study; format: in vivo; conditions: for Safety margin: human starting dose lower than NOAEL: 3 mg/m^2 human starting dose
Experimental: (§1) The proposed clinical trial will be a multicenter, open-label, dose-escalation, safety, pharmacodynamic and pharmacokinetic study in patients with advanced solid tumors administered GO-203-2c IV over 60 min once per day for 21 consecutive days; this dosing regimen will be repeated every 28 days. Since the majority of the treatment-related findings in rats and dogs were localized at the infusion site or were secondary to the infusion site reactions, the no-observed-adverse-effect-level (NOAEL) for systemic toxicity in the pivotal repeat-dose rat toxicity study was determined to be 5 mg/kg/day. The highest non-severely toxic dose (HNSTD), which was also considered the NOAEL, was established as 1 mg/kg/day in the dog pivotal repeat-dose toxicity study. For vascular injury at the injection site, the NOAEL in rats is […]. This concentration rate is 25-fold greater than the estimated concentration rate for humans (0.83 μg/mL/min) at the recommended starting dose of 3 mg/m2/day (assumes a body mass of 1.65 m2).

[2] = Redox conversion in the presence of glutathione; format: physicochemical; conditions: in the presence of low levels of glutathione
Source text: The drug substance is isolated as the disulfide, with the disulfide bond cyclizing the D-cys10 and D-cys12 residues. The synthesis, cleavage, oxidation and purification steps use standard solid phase procedures as described in the literature. A solution phase procedure for converting the peptide to the cyclic disulfide was developed. […] The biological properties of GO-203-2c will in part be governed by glutathione, which provides a significant portion of in vivo redox buffering capacity as mentioned above. Total glutathione levels approximate 20-30 μM in blood plasma, 0.5 mM in whole blood, and 5-10 mM intracellularly. […] Intracellular glutathione concentrations are sufficient to convert GO-203-2c (disulfide) to the GO-203-2 (dithiol) species that binds to the biological target, MUC1-CD.

[3] = test system: MiaPaCa pancreatic carcinoma xenograft; assay: MiaPaCa human pancreatic carcinoma xenograft model, GO-203-2c IV; format: in vivo, mouse
Experimental: Male BALB/c nu/nu mice (8 weeks old; Charles River Laboratories, Wilmington, Mass.) were injected with 2.5 million MiaPaCa cells in the right thigh. When tumors reached a predetermined size (approximately 100 mm^3; 34 days after tumor cell implantation), mice (8 per group) were administered normal saline (control) or GO-203-2c (10 mg/kg) IV daily for 21 consecutive days. At the end of the treatment period, and following a one week interim period, animals that received GO-203-2c initially were administered an additional series of GO-203-2c daily injections.

[4] = target: adrenergic α1A receptor (Homo sapiens, UniProt P35348); assay: biochemical
Chain of adrenergic α1A receptor (P35348 whole entry): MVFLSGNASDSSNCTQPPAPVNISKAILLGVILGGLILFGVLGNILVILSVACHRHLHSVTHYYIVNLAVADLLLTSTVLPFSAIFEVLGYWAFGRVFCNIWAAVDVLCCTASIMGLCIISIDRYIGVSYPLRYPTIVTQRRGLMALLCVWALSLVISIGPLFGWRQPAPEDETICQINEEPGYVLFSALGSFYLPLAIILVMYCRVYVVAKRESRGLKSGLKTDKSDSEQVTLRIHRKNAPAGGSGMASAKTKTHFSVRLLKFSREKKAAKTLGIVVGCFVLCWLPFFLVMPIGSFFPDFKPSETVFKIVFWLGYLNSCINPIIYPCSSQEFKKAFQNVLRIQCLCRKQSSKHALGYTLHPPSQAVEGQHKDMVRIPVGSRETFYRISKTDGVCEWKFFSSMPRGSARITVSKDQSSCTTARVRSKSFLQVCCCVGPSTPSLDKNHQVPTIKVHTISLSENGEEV

[5] = test system: ZR-75-1 human breast carcinoma xenograft; assay: ZR-75-1 human breast carcinoma xenograft model, daily dosing for 21 days; format: in vivo, mouse; conditions: nu/nu mice
Experimental: Efficacy of GO-203-2c was evaluated in a ZR-75-1 human breast carcinoma xenograft model. Female nu/nu mice (20-30 g; Charles River Laboratories, Wilmington, Mass.) were injected in the thigh with 5 million ZR-75-1 cells in Matrigel suspension. Mice also received subcutaneous 17-β-estradiol pellets. When tumors reached 100-200 mm^3 in size (approximately 12-15 days after implantation), mice were split into 4 groups of 5 mice and administered the following treatments daily for 21 days: phosphate-buffered saline (PBS) IP, 1 mg/kg GO-203-2c IV, 4 mg/kg GO-203-2c IV or 4 mg/kg control peptide CP-3 IV. Each animal was sacrificed when the tumor reached the predetermined endpoint size (˜2500 mm^3) or when the animals remained tumor-free for 180 days after implantation of the tumor cells.

[6] = test system: PC3 prostate carcinoma xenograft; assay: PC3 human prostate carcinoma xenograft model; format: in vivo, mouse; conditions: 7.5 mg/kg
Experimental: Male BALB/c nu/nu mice (6-7 weeks old; Charles River Laboratories, Wilmington, Mass.) were injected with 5 million A549 or PC3 cells in the right thigh. When tumors reached a predetermined size (approximately 80-100 mm^3; 10-16 days after tumor cell implantation), treatment was initiated as follows: Group 1, saline control (daily×21 days); Group 2, GO-203-2c (7.5 mg/kg, 5 days on/2 days off×3 cycles); Group 3, GO-203-2c (7.5 mg/kg, daily×21 days). In the A549 study, Group 3 animals that still had palpable/measurable tumors at the end of the 21-day treatment period were administered an additional 9 days of GO-203-2c treatment (Group 3′), with a one week interim period between treatments.

[7] = target: dopamine D1 receptor (Homo sapiens, UniProt P21728); assay: biochemical
Chain of dopamine D1 receptor (P21728 whole entry, species assumed): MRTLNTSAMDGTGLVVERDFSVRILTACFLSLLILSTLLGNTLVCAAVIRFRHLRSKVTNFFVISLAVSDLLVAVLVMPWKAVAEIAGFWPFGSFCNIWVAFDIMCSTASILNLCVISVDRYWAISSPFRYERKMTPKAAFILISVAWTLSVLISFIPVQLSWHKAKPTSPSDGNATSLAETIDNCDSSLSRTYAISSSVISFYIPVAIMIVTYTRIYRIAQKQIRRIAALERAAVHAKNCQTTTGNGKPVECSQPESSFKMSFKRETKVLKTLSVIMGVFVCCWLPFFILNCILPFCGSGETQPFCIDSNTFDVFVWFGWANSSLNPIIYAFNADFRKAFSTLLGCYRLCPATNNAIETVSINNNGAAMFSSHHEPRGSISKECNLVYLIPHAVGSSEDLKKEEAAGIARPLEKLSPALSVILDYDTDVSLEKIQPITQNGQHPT

[8] = target: norepinephrine transporter (Homo sapiens, UniProt P23975); assay: biochemical
Chain of norepinephrine transporter (P23975 whole entry, species assumed): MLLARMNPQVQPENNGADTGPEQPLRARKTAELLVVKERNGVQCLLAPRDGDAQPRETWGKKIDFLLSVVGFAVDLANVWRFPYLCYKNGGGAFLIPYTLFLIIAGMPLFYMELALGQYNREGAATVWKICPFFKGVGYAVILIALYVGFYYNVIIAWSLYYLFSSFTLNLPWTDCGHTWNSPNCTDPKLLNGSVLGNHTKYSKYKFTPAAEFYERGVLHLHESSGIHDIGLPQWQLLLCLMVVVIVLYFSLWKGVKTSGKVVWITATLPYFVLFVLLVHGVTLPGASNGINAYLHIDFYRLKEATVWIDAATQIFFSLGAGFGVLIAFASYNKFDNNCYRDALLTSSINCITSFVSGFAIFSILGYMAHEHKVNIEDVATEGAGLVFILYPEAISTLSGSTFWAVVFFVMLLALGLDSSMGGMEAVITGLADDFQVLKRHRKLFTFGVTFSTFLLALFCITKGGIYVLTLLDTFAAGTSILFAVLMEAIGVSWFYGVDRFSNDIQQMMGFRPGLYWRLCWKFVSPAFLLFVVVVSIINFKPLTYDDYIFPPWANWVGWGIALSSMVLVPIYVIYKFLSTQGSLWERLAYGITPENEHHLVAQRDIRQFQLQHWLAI

[9] = Dog pivotal repeat-dose toxicity study; format: in vivo; conditions: for Safety margin: human starting dose lower than NOAEL: 3 mg/m^2 human starting dose
Experimental: as §1

[10] = target: muscarinic M2 receptor (Homo sapiens, UniProt P08172); assay: biochemical
Chain of muscarinic M2 receptor (P08172 whole entry): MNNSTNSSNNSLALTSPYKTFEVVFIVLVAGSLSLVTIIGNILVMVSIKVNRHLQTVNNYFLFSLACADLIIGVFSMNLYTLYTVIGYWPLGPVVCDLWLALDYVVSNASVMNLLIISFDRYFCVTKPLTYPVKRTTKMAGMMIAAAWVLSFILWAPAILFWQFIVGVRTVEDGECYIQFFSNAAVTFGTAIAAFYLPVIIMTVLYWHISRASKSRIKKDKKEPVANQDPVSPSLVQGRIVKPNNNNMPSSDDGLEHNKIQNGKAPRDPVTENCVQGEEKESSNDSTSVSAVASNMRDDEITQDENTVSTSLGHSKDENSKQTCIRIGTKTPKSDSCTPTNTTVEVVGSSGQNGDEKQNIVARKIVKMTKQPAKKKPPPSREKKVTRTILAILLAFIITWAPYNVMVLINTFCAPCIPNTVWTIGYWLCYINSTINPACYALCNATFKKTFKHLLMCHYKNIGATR

[11] = 10 mg/kg IV daily for 21 consecutive days

With CC(=O)N[C@H](CCCNC(=N)N)C(=O)N[C@H](CCCNC(=N)N)C(=O)N[C@H](CCCNC(=N)N)C(=O)N[C@H](CCCNC(=N)N)C(=O)N[C@H](CCCNC(=N)N)C(=O)N[C@H](CCCNC(=N)N)C(=O)N[C@H](CCCNC(=N)N)C(=O)N[C@H](CCCNC(=N)N)C(=O)N[C@H](CCCNC(=N)N)C(=O)N[C@@H]1CSSC[C@H](C(=O)N[C@H](CCCNC(=N)N)C(=O)N[C@H](CCCNC(=N)N)C(=O)N[C@H](CCCCN)C(=O)N[C@H](CC(N)=O)C(N)=O)NC(=O)[C@@H](CCC(N)=O)NC1=O [GO-203-2c, Ac-(D)Arg-(D)Arg-(D)Arg-(D)Arg-(D)Arg-(D)Arg-(D)Arg-(D)Arg-(D)Arg-(D)Cys-(D)Gln-(D)Cys-(D)Arg-(D)Arg-(D)Lys-(D)Asn-NH2 disulfide] (Ac-[dR][dR][dR][dR][dR][dR][dR][dR][dR][dC][dQ][dC][dR][dR][dK][dN]-NH2; disulfide 10-12) the “Rat injection-site NOAEL concentration rate relative to estimated human concentration rate (0.83 μg/mL/min)” value ([1]; human starting dose of 3 mg/m2/day) was 25 fold, the NOAEL ([1]; in vivo, rat, repeat-dose IV, read-out: NOAEL for systemic toxicity) was 5 mg/kg/day and the “NOAEL (systemic)” value ([1]; rat, body surface area basis) was 30 mg/m2/day. For the same molecule, the “Safety margin: human starting dose lower than NOAEL” value ([1]; rat, mg/kg basis) was 62 fold, the “Safety margin: human starting dose lower than NOAEL” value ([1]; rat, mg/m^2 basis) was 10 fold and the “NOAEL for vascular injury at the injection site (concentration rate)” value ([1]; rats) was 20.8 µg/mL/min. For the same molecule, the “Conversion of disulfide to reduced (dithiol) form” value [2] was “readily re-forms the reduced (dithiol) GO-203-2 peptide”, the Mice tumor-free [3, 11] was 2 of 8 and Two out of 8 and the Tumor response [3, 11] was “significant arrest of tumor growth; also recorded: tumor growth delay”. For the same molecule, the “Tumor response after re-dosing” value ([3]; another cycle of daily IV 10 mg/kg from day 29) was “somewhat stabilized, with a very slow growth”, the “Average tumor size on day 29” value ([3]; six remaining mice after 7-day rest period, at start of re-dosing) was ~400 mm^3 and the IC50 [4] was 3 to 8 µM. For the same molecule, the Tumor response ([5]; 1 mg/kg IV daily for 21 days) was “Partial tumor regression”, the Tumor response ([5]; 4 mg/kg IV daily for 21 days) was “complete regression of tumor growth” and the Tumor response ([6]; 5 days on/2 days off x 3 cycles) was “complete growth arrest and regression; also recorded: tumor growth was immediately arrested and tumors regressed”. For the same molecule, the Tumor response ([6]; daily x 21 days) was “complete growth arrest and regression; also recorded: tumor growth was immediately arrested and tumors regressed”, the IC50 [7] was 10.5 µM and the IC50 [8] was 3 to 8 µM. For the same molecule, the “HNSTD or NOAEL” value ([9]; body surface area basis) was 20 mg/m2/day, the NOAEL ([9]; in vivo, repeat-dose IV, read-out: Highest non-severely toxic dose (HNSTD), also considered the NOAEL) was 1 mg/kg/day and the “Safety margin: human starting dose lower than NOAEL” value ([9]; mg/kg basis) was 12 fold. For the same molecule, the “Safety margin: human starting dose lower than NOAEL” value ([9]; mg/m^2 basis) was 6.7 fold and the IC50 [10] was 3 to 8 µM.
